According to publication PMC3462775 (PLoS ONE, 2012):
Converted amounts (≈) assume the structure as drawn. Bridge positions count the residues as written; N and C are the ends. Square brackets hold non-standard residues; d marks the D form. Peptide text beside a SMILES is read from it. I, II: the chains in the order shown. βAla = NCCC(=O)O

What was measured:
[1] = system: K.pneumoniae 7086042; type: cell-based, Klebsiella pneumoniae
Experimental: (§1) MICs were determined using a standard microdilution assay as recommended by the Clinical and Laboratory Standards Institute. Assays were performed in triplicate using cation-supplemented Mueller-Hinton (MH) broth (Becton Dickinson, Franklin Lakes, NJ, USA) and a bacterial inoculum of 5x10^4 CFU/well, in a final volume of 100 µl. The tested concentrations ranged from 0.1 µM to 24 µM for both peptides. Results were recorded after 18–20 h of incubation at 37°C.

[2] = Calcein release from liposomes mimicking the membrane of S. aureus; details: CL/PG 4∶6 liposomes, 50 µM lipid, 10 min at 20°C, peptide 0,5 to 15 µM, fluorescence 490/517 nm, three independent experiments
Source text: To investigate interaction of peptides M33-D and M33-L with the bacterial membrane, including possible perturbation, we used vesicles with two lipid compositions to mimic the membrane of S. aureus (CL/PG, 4∶6 mol/mol) and E. coli (PE/PG, 7∶3 mol/mol). […] The peptide-induced effect was dose-dependent in both vesicle lipid compositions. […] No significant differences in the effects induced by M33-D and M33-L were evident, although the D peptide seemed slightly more efficient towards CL/PG liposomes at doses above 8 µM. […] The greater perturbing effect of both forms of M33 on PE/PG vesicles, compared to vesicles containing cardiolipin, was evident.
Calcein-loaded liposomes of two different composition (PE/PG, 7∶3 mol/mol and CL/PG, 4∶6 mol/mol) were prepared as follows. […] Lipid concentration of vesicles was measured by the method of Stewart and the final concentration used for all measurements was 50 µM. Calcein fluorescence in the vesicles is self-quenched and leakage was measured by relief of quenching; the measurements were carried out at 517 nm, exciting at 490 nm, with a Perkin-Elmer LS 50B spectrofluorimeter. […] Leakage was calculated by the equation: [drawing 1] where F and Ft are fluorescence […] addition of detergent and F0 the fluorescence of intact vesicles.

[3] = system: P.aeruginosa AV 65; type: cell-based, Pseudomonas aeruginosa
Experimental: as §1

[4] = system: S.aureus 3851; type: cell-based, Staphylococcus aureus
Experimental: as §1

[5] = system: S.aureus USA 300; type: cell-based, Staphylococcus aureus
Experimental: as §1

[6] = system: Enterobacteriaceae; test: MIC comparison M33-D vs M33-L, Enterobacteriaceae; type: cell-based
Experimental: as §1

[7] = system: P. aeruginosa ATCC 27853 biofilm; type: cell-based, Pseudomonas aeruginosa; details: ATCC 27853, 20 h
Experimental: Biofilm formation was performed by adapting the procedure described in [39] using the Calgary Biofilm Device (Innovotech, Innovotech Inc. Edmonton, Canada). Briefly, 96-well plates containing the bacterial inoculum were sealed with lids bearing 96 pegs on which the biofilm could build up. The plates were placed in an orbital incubator at 35°C (for P. aeruginosa and E. coli) or 37°C (for S. aureus) for 20 h under agitation at 125 rpm. Once biofilms formed, the lids were removed from the plates and the pegs were rinsed twice with phosphate buffered saline (PBS) to remove planktonic cells. The peg-lid was then transferred to a 96-well challenge microtiter plate, each well containing 200 µl of a twofold serial dilution of each peptide in LB medium. The challenge plate was incubated at 37°C for 2 hours. Peptide activity on pre-formed biofilm was evaluated by two independent methods: (i) visual observation of bacterial growth and (ii) counting of living bacterial cells after peptide treatment. In the first case, the peg-lid was removed from the challenge plate, rinsed with PBS and used to cover a 96-well recovery microtiter plate, each well containing 200 µl LB medium. The recovery plate was sealed, incubated at 37°C for 4 hours and then observed for any visible growth of bacteria detached from the peptide-treated biofilm. […]

[8] = system: S. aureus ATCC 25923 biofilm; type: cell-based, Staphylococcus aureus; details: for Minimum biofilm eradication concentration (MBEC): ATCC 25923, 20 h
Experimental: Biofilm formation was performed by adapting the procedure described in [39] using the Calgary Biofilm Device (Innovotech, Innovotech Inc. Edmonton, Canada). Briefly, 96-well plates containing the bacterial inoculum were sealed with lids bearing 96 pegs on which the biofilm could build up. The plates were placed in an orbital incubator at 35°C (for P. aeruginosa and E. coli) or 37°C (for S. aureus) for 20 h under agitation at 125 rpm. Once biofilms formed, the lids were removed from the plates and the pegs were rinsed twice with phosphate buffered saline (PBS) to remove planktonic cells. The peg-lid was then transferred to a 96-well challenge microtiter plate, each well containing 200 µl of a twofold serial dilution of each peptide in LB medium. The challenge plate was incubated at 37°C for 2 hours. Peptide activity on pre-formed biofilm was evaluated by two independent methods: (i) visual observation of bacterial growth and (ii) counting of living bacterial cells after peptide treatment. In the first case, the peg-lid was removed from the challenge plate, rinsed with PBS and used to cover a 96-well recovery microtiter plate, each well containing 200 µl LB medium. The recovery plate was sealed, incubated at 37°C for 4 hours and then observed for any visible growth of bacteria detached from the peptide-treated biofilm. Growth of bacteria in a particular well indicated regrowth of planktonic cells from surviving biofilm. Minimum biofilm eradication concentration (MBEC) was defined as the minimum peptide concentration preventing regrowth of bacteria from the treated biofilm within 4 hours.

[9] = system: P.aeruginosa ATCC 27853; test: MIC, standard microdilution assay; type: cell-based, Pseudomonas aeruginosa; details: Reference strain, wild type; CLSI microdilution, cation-supplemented Mueller-Hinton broth, 5x10^4 CFU/well, 18–20 h at 37°C, triplicate
Experimental: as §1

| SMILES | MIC [1] [µM] | peptide concentration giving maximum calcein release [2] | MIC [3] [µM] | MIC [4] [µM] | MIC [5] [µM] | fold lower activity (MIC) than M33-L [6] | Minimum biofilm eradication concentration (MBEC) [7] [µM] | Minimum biofilm eradication concentration (MBEC) [8] [µM] | MIC [9] [µM] | activity in biofilm eradication experiments with respect to M33-D ([8]; S. aureus biofilm eradication, relative to M33-D) [%] |
| --- | --- | --- | --- | --- | --- | --- | --- | --- | --- | --- |
| CC[C@@H](C)[C@@H](NC(=O)[C@@H](CCCCN)NC(=O)[C@H](N)CCCCN)C(=O)N[C@H](CCCNC(=N)N)C(=O)N[C@@H](C(=O)N[C@H](CCCNC(=N)N)C(=O)N[C@H](CC(C)C)C(=O)N[C@H](CO)C(=O)N[C@H](C)C(=O)NCCCC[C@H](NC(=O)[C@@H](C)NC(=O)[C@@H](CO)NC(=O)[C@@H](CC(C)C)NC(=O)[C@@H](CCCNC(=N)N)NC(=O)[C@H](NC(=O)[C@@H](CCCNC(=N)N)NC(=O)[C@H](NC(=O)[C@@H](CCCCN)NC(=O)[C@H](N)CCCCN)[C@H](C)CC)C(C)C)C(=O)NCCCC[C@H](NC(=O)[C@H](CCCCNC(=O)[C@@H](C)NC(=O)[C@@H](CO)NC(=O)[C@@H](CC(C)C)NC(=O)[C@@H](CCCNC(=N)N)NC(=O)[C@H](NC(=O)[C@@H](CCCNC(=N)N)NC(=O)[C@H](NC(=O)[C@@H](CCCCN)NC(=O)[C@H](N)CCCCN)[C@H](C)CC)C(C)C)NC(=O)[C@@H](C)NC(=O)[C@@H](CO)NC(=O)[C@@H](CC(C)C)NC(=O)[C@@H](CCCNC(=N)N)NC(=O)[C@H](NC(=O)[C@@H](CCCNC(=N)N)NC(=O)[C@H](NC(=O)[C@@H](CCCCN)NC(=O)[C@H](N)CCCCN)[C@H](C)CC)C(C)C)C(=O)NCCC(=O)O)C(C)C [M33-D] (I: H-[dK][dK][dI][dR][dV][dR][dL][dS][dA]KK[βAla]-OH / II: H-[dK][dK][dI][dR][dV][dR][dL][dS][dA]K / III: H-[dK][dK][dI][dR][dV][dR][dL][dS][dA] / IV: H-[dK][dK][dI][dR][dV][dR][dL][dS][dA]; amide I:10-IV:C, I:11-II:C, II:10-III:C; N-terminus assumed) | 6 (≈ 28.1 µg/mL) | greater than 10 µM | 3 (≈ 14 µg/mL) | 0.7 (≈ 3.28 µg/mL) | 1.5 (≈ 7.02 µg/mL) | 2–4 fold | 3 | 1.5 | 1.5 (≈ 7.02 µg/mL) | – |
| CC[C@H](C)[C@H](NC(=O)[C@H](CCCCN)NC(=O)[C@@H](N)CCCCN)C(=O)N[C@@H](CCCNC(=N)N)C(=O)N[C@H](C(=O)N[C@@H](CCCNC(=N)N)C(=O)N[C@@H](CC(C)C)C(=O)N[C@@H](CO)C(=O)N[C@@H](C)C(=O)NCCCC[C@H](NC(=O)[C@H](C)NC(=O)[C@H](CO)NC(=O)[C@H](CC(C)C)NC(=O)[C@H](CCCNC(=N)N)NC(=O)[C@@H](NC(=O)[C@H](CCCNC(=N)N)NC(=O)[C@@H](NC(=O)[C@H](CCCCN)NC(=O)[C@@H](N)CCCCN)[C@@H](C)CC)C(C)C)C(=O)NCCCC[C@H](NC(=O)[C@H](CCCCNC(=O)[C@H](C)NC(=O)[C@H](CO)NC(=O)[C@H](CC(C)C)NC(=O)[C@H](CCCNC(=N)N)NC(=O)[C@@H](NC(=O)[C@H](CCCNC(=N)N)NC(=O)[C@@H](NC(=O)[C@H](CCCCN)NC(=O)[C@@H](N)CCCCN)[C@@H](C)CC)C(C)C)NC(=O)[C@H](C)NC(=O)[C@H](CO)NC(=O)[C@H](CC(C)C)NC(=O)[C@H](CCCNC(=N)N)NC(=O)[C@@H](NC(=O)[C@H](CCCNC(=N)N)NC(=O)[C@@H](NC(=O)[C@H](CCCCN)NC(=O)[C@@H](N)CCCCN)[C@@H](C)CC)C(C)C)C(=O)NCCC(=O)O)C(C)C [M33-L] (I: H-KKIRVRLSAKK[βAla]-OH / II: H-KKIRVRLSAK / III: H-KKIRVRLSA / IV: H-KKIRVRLSA; amide I:10-IV:C, I:11-II:C, II:10-III:C; N-terminus assumed) | 3 (≈ 14 µg/mL) | greater than 10 µM | 3 (≈ 14 µg/mL) | 12 (≈ 56.2 µg/mL) | 6 (≈ 28.1 µg/mL) | – | 1.5 | 12 | 1.5 (≈ 7.02 µg/mL) | 12 |
